We go through 23 molecules from patent US20220388964A1 (HiberCell, Inc., priority 2019, published 2022).

Bounds are passed on as bounds.

The first assay deals with GCN2 (Homo sapiens, UniProt Q9P2K8). Briefly: TR-FRET biochemical assay for inhibition of GCN2 (Example 106, for Example 1-4BB). To be noted: Table 8.
GCN2, sequence (Q9P2K8 whole entry): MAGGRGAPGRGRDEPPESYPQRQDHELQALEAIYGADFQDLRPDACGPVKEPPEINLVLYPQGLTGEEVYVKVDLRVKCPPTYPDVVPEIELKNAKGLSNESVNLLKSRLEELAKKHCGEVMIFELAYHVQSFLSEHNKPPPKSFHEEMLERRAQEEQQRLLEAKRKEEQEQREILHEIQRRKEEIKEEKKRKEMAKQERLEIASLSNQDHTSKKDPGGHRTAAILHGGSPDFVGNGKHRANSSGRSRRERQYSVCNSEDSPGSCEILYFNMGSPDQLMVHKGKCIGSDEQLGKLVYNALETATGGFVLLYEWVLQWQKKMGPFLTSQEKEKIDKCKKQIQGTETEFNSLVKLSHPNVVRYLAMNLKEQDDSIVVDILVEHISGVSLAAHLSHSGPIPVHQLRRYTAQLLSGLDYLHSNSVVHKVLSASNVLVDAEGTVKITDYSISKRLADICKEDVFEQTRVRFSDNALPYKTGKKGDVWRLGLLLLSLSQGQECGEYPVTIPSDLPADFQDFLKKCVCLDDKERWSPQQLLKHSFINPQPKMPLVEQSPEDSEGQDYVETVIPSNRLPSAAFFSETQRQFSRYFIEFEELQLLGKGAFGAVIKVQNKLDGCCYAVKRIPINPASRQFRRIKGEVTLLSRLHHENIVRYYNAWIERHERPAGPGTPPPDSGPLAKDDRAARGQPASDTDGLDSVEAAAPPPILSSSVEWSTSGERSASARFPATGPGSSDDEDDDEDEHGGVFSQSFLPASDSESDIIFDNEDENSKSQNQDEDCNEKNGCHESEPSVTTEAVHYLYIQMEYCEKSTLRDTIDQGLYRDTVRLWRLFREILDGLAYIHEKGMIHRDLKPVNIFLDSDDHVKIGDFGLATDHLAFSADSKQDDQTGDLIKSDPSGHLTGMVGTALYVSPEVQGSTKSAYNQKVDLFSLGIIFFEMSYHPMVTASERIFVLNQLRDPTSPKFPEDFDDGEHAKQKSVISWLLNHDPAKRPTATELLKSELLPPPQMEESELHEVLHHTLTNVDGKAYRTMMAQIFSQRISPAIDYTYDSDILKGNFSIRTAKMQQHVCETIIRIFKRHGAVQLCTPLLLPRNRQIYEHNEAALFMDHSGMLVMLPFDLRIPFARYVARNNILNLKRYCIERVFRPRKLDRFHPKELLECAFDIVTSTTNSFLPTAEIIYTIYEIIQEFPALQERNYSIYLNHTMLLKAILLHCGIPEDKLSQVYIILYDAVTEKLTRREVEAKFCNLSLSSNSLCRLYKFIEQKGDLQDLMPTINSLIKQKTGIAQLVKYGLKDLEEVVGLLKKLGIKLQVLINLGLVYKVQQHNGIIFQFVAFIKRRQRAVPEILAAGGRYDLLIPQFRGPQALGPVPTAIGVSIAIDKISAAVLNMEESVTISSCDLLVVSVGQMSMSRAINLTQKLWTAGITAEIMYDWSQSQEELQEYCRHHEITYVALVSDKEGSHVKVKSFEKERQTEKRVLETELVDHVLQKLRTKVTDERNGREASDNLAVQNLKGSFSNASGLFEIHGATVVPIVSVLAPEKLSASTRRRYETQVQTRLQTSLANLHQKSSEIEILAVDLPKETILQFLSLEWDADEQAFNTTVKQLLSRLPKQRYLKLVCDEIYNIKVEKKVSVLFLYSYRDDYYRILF
The molecule `COC(=O)c1n[nH]c2c(F)c(-c3c(F)ccc(NS(=O)(=O)c4cc(Cl)cnc4OC)c3F)ccc12` [Example 4, Methyl 6-(3-((5-Chloro-2-methoxypyridine)-3-sulfonamido)-2,6-difluorophenyl)-7-fluoro-1H-indazole-3-carboxylate] displayed a half-inhibitory concentration (IC50) of less than 500 nM.

The molecule `COc1ncc(Cl)cc1S(=O)(=O)Nc1ccc(F)c(-c2ccc3c(-c4ncc[nH]4)n[nH]c3c2)n1` [Example 2CA] gave a half-inhibitory concentration (IC50) of 500 to 2500 nM. As for `COc1ncc(Cl)cc1S(=O)(=O)Nc1ccc(F)c(-c2ccc3c(C(=O)NCCO)n[nH]c3c2F)c1F` [Example 2CH, 6-(3-((5-chloro-2-methoxy-pyridine)-3-sulfonamido)-2,6-difluorophenyl)-7-fluoro-N-(2-hydroxyethyl)-1H-indazole-3-carboxamide], the concentration for half-maximal inhibition (IC50) is less than 500 nM.

On to `Cc1ccc(S(=O)(=O)Nc2ccc(F)c(-c3ccc4c(-c5ncc[nH]5)n[nH]c4c3F)c2F)c(C)n1` [Example 2AA, N-(2,4-difluoro-3-(7-fluoro-3-(1H-imidazol-2-yl)-1H-indazol-6-yl)phenyl)-2,6-dimethyl-pyridine-3-sulfonamide], for which the IC50 is less than 500 nM.

Consider `COc1cccc(S(=O)(=O)Nc2ccc(F)c(-c3ccc4c(-c5ncc[nH]5)n[nH]c4c3F)c2F)c1F` [Example 2AP, N-(2,4-difluoro-3-(7-fluoro-3-(1H-imidazol-2-yl)-1H-indazol-6-yl)phenyl)-2-fluoro-3-methoxybenzene-sulfonamide], for which the IC50 was less than 500 nM.

For the molecule `CC(C)c1cccc(S(=O)(=O)Nc2ccc(F)c(-c3ccc4c(-c5ncc[nH]5)n[nH]c4c3F)c2F)c1` [Example 2L, N-(2,4-difluoro-3-(7-fluoro-3-(1H-imidazol-2-yl)-1H-indazol-6-yl)phenyl)-3-isopropyl-benzenesulfonamide], the 50% inhibitory concentration (IC50) was in the range of 2500 to 10000 nM. With `COc1ncc(Cl)cc1S(=O)(=O)Nc1ccc(F)c(-c2ccc3c(C(=O)NCC(C)C)n[nH]c3c2F)c1F` [Example 2CJ, 6-(3-((5-chloro-2-methoxy-pyridine)-3-sulfonamido)-2,6-difluorophenyl)-7-fluoro-N-isobutyl-1H-indazole-3-carboxamide], the IC50 is less than 500 nM.

The molecule `Cc1oncc1S(=O)(=O)Nc1ccc(F)c(-c2ccc3c(-c4ncc[nH]4)n[nH]c3c2F)c1F` [Example 2AE, N-(2,4-difluoro-3-(7-fluoro-3-(1H-imidazol-2-yl)-1H-indazol-6-yl)phenyl)-5-methylisoxazole-4-sulfonamide] came in with a half-maximal inhibitory concentration (IC50) greater than 10000 nM. Still for that read-out and setting: to `Cc1c(O)cccc1S(=O)(=O)Nc1ccc(F)c(-c2ccc3c(-c4ncc[nH]4)n[nH]c3c2F)c1F` [Example 2AU, N-(2,4-difluoro-3-(7-fluoro-3-(1H-imidazol-2-yl)-1H-indazol-6-yl)phenyl)-3-hydroxy-2-methylbenzene-sulfonamide] belongs 500 to 2500 nM; to `Cc1ccccc1S(=O)(=O)Nc1ccc(F)c(-c2ccc3c(-c4ncc[nH]4)n[nH]c3c2F)c1F` [Example 2BR, N-(2,4-difluoro-3-(7-fluoro-3-(1H-imidazol-2-yl)-1H-indazol-6-yl)phenyl)-2-methylbenzenesulfonamide], less than 500 nM; to `O=S(=O)(Nc1ccc(F)c(-c2ccc3c(-c4ncc[nH]4)n[nH]c3c2F)c1F)c1cccc(Cl)c1F` [Example 2BB, 3-chloro-N-(2,4-difluoro-3-(7-fluoro-3-(1H-imidazol-2-yl)-1H-indazol-6-yl)phenyl)-2-fluorobenzenesulfonamide], less than 500 nM.

The same assay, now with this note: Table 9.
As to `COc1nc(C)c(C#N)cc1S(=O)(=O)Nc1ccc(F)c(-c2ccc3c(-c4ncc[nH]4)n[nH]c3c2F)c1F` [Example 3DK, 5-cyano-N-(2,4-difluoro-3-(7-fluoro-3-(1H-imidazol-2-yl)-1H-indazol-6-yl)phenyl)-2-methoxy-6-methylpyridine-3-sulfonamide], the half-inhibitory concentration (IC50) was less than 500 nM. Molecule `COc1ncc(C#N)cc1S(=O)(=O)Nc1ccc(F)c(-c2ccc3c(C(=O)NCCCN(C)C)n[nH]c3c2F)c1F` [Example 3BU, 6-(3-((5-cyano-2-methoxy-pyridine)-3-sulfonamido)-2,6-difluorophenyl)-N-(3-(dimethylamino)propyl)-7-fluoro-1H-indazole-3-carboxamide] showed an IC50 of 500 to 2500 nM. Same read-out and setting: to `COc1ncc(Cl)cc1S(=O)(=O)Nc1ccc(F)c(-c2ccc3c(C(=O)Nc4nn[nH]n4)n[nH]c3c2F)c1F` [Example 3CU, 6-(3-((5-chloro-2-methoxy-pyridine)-3-sulfonamido)-2,6-difluorophenyl)-7-fluoro-N-(2H-tetrazol-5-yl)-1H-indazole-3-carboxamide] belongs less than 500 nM; to `COc1ncc(F)cc1S(=O)(=O)Nc1ccc(F)c(-c2ccc3c(C(=O)NC[C@@H](O)CO)n[nH]c3c2F)c1F` [Example 3AH, 6-(2,6-difluoro-3-((5-fluoro-2-methoxypyridine)-3-sulfonamido)phenyl)-N-((R)-2,3-dihydroxypropyl)-7-fluoro-1H-indazole-3-carboxamide], less than 500 nM; to `COc1ccc(NS(=O)(=O)c2cc(F)cnc2OC)c(F)c1-c1ccc2c(C(=O)NCCCO)n[nH]c2c1F` [Example 25, 7-Fluoro-6-(2-fluoro-3-((5-fluoro-2-methoxypyridine)-3-sulfonamido)-6-methoxyphenyl)-N-(3-hydroxypropyl)-1H-indazole-3-carboxamide], 2500 to 10000 nM.

In turn, `CC1CCc2c1cc(F)cc2S(=O)(=O)Nc1ccc(F)c(-c2ccc3c(-c4ncc[nH]4)n[nH]c3c2F)c1F` (centres unmarked) [Example 4AQ] displayed an IC50 of less than 500 nM. `COc1ncc(Cl)cc1S(=O)(=O)Nc1cccc(-c2cc3[nH]nc(C(=O)NCCCO)c3cn2)c1F` [Example 3BC, 6-(3-((5-chloro-2-methoxy-pyridine)-3-sulfonamido)-2-fluorophenyl)-N-(3-hydroxy-propyl)-1H-pyrazolo[4,3-c]pyridine-3-carboxamide] had an IC50 of less than 500 nM. Take `NC1CCc2c1cc(F)cc2S(=O)(=O)Nc1ccc(F)c(-c2ccc3c(-c4ncc[nH]4)n[nH]c3c2F)c1F` (centres unmarked) [Example 4AO]: the IC50 was greater than 10000 nM.

In the case of `COc1ncc(F)cc1S(=O)(=O)Nc1ccc(F)c(-c2ccc3c(-c4nc(C(N)=O)c[nH]4)n[nH]c3c2F)c1F` [Example 20, 2-(6-(2,6-Difluoro-3-((5-fluoro-2-methoxypyridine)-3-sulfonamido)phenyl)-7-fluoro-1H-indazol-3-yl)-1H-imidazole-4-carboxamide], the half-maximal inhibitory concentration (IC50) is less than 500 nM. The molecule `COc1ncc(F)cc1S(=O)(=O)Nc1ccc(F)c(-c2ccc3c(-c4nnc(C)[nH]4)n[nH]c3c2F)c1F` [Example 3CK, N-(2,4-difluoro-3-(7-fluoro-3-(5-methyl-4H-1,2,4-triazol-3-yl)-1H-indazol-6-yl)phenyl)-5-fluoro-2-methoxypyridine-3-sulfonamide] came in with an IC50 of less than 500 nM. Consider `Cc1ncc(F)cc1S(=O)(=O)Nc1ncc(F)c(-c2ccc3c(-c4ncc[nH]4)n[nH]c3c2F)c1F` [Example 3F, N-(3,5-difluoro-4-(7-fluoro-3-(1H-imidazol-2-yl)-1H-indazol-6-yl)pyridin-2-yl)-5-fluoro-2-methylpyridine-3-sulfonamide], for which the concentration for half-maximal inhibition (IC50) was less than 500 nM. In turn, `CN(C)CCCNC(=O)c1n[nH]c2c(F)c(-c3c(F)ccc(NS(=O)(=O)c4cc(F)cc(CO)c4F)c3F)ccc12` [Example 4P] returned an IC50 of less than 500 nM.
